In patent US8101605B2, “SHIP1 modulators and methods related thereto” (Aquinox Pharmaceuticals Inc., priority 2009, dated 2012):

Legend:
[1] = tested on: allergen-induced passive cutaneous anaphylaxis; experiment: Passive cutaneous anaphylaxis in mice; type: in vivo; conditions: oral gavage, doses less than 20 mg/kg
Method: The activity of representative compounds on passive cutaneous anaphylaxis in mice was evaluated according to the procedures disclosed by Ovary, J Immunol 81, 355-357, 1958 and Halpern et al., Br J Pharmacol Chemother 20, 389-398, 1963, both of which are incorporated herein by reference in their entirety. To induce a passive cutaneous anaphylaxis, mice underwent intradermal ear inoculation on their right ear with 25 ng in 20 μL of anti-DNP-IgE. The left ears were untreated and served as negative controls. Twenty-four hours after inoculation, all mice were administered test compound by oral gavage (PO). Sixty minutes after oral administration, mice were given a tail vein injection of 2% Evan's blue (0.2 μm filtered, in 200 μL saline) followed by a second tail IV injection of 100 μg DNP-HSA (in 200 μL). Sixty minutes following the DNP-HSA injection, mice were euthanized using CO2 inhalation. Subsequently, ear biopsies were performed by taking four millimetre punches from both ears, which then underwent Evan's Blue extraction using formamide incubation in 96 well plates. Eighty μL of eluents were transferred to flat-bottom 96-well plates and absorbance read using SpectraMax M5 spectrophotometer (Molecular Devices, Sunnyvale, Calif., USA) at 620 nm. Background readings from all samples were taken at 740 nm and subtracted from the 620 nm readings. Data were reported as OD. […] Scoring in Table 4 is expressed as follows: + (1-30% inhibition); ++ (31-50% inhibition); +++ (>50% inhibition).

His-hSHIP1 enzyme = target: T1, His-hSHIP1 enzyme (Homo sapiens, UniProt Q92835); experiment: His-hSHIP1 phosphatase activity assay (IP4 substrate, Biomol Green); type: biochemical; conditions: percentage increase relative to background; concentrations ≦300 μM
T1 sequence (Q92835 1-1189): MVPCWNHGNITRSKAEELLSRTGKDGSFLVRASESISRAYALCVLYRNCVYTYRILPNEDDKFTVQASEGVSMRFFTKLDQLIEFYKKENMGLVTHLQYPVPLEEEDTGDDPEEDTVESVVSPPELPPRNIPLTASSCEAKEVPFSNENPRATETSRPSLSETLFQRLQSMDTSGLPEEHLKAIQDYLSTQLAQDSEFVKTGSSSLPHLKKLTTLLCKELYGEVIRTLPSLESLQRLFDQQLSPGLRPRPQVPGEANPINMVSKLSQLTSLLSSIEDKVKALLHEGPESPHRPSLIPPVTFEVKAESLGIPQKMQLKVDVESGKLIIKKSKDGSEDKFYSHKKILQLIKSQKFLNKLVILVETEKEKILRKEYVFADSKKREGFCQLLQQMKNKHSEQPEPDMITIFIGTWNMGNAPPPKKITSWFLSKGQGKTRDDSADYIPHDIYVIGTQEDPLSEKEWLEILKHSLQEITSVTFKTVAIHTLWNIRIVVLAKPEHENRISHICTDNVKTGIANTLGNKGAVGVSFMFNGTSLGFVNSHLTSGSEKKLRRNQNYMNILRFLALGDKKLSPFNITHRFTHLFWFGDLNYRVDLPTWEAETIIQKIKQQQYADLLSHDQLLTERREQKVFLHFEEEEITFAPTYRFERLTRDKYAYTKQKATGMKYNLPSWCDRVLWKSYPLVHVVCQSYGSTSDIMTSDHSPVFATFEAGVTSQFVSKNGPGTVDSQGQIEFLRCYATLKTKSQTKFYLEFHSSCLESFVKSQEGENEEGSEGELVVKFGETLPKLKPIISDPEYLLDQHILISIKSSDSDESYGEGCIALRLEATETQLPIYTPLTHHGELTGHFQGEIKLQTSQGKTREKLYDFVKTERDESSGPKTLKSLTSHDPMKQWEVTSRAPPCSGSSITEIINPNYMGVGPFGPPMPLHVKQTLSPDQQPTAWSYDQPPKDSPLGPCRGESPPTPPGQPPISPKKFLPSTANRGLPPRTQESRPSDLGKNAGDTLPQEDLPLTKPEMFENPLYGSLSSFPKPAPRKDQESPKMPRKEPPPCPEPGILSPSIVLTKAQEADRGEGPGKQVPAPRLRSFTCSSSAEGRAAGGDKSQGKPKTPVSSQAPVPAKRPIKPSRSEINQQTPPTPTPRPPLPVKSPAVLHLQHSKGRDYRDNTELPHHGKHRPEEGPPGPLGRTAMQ
Method in brief: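 His-hSHIP1 (15–20 ng) was incubated with IP4 (50 μM final) and compound (0–300 μM final, from 10% ethanol solutions) in 20 mM Tris-HCl, 10 mM MgCl2 pH 7.5, 0.02% Tween 20 for 15 min at 37 °C. Released phosphate was read with Biomol Green at 650 nm. Activation is % increase over background, scored + (<50%), ++ (≥50% but <65%), +++ (≥65%).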

SMILES: CC1(C)CCC[C@]2(C)[C@H]3COc4c(O)cc(O)cc4[C@]3(C)CC[C@@H]12 [Compound No. 43, (1R,10R,11S,16S)-1,11,15,15-tetramethyl-8-oxatetracyclo[8.8.0.0^2,7.0^11,16]octadeca-2,4,6-triene-4,6-diol]
- Scoring: inhibition of passive cutaneous anaphylaxis [1]: + (1-30% inhibition)
- Scoring: percent (%) activation of His-hSHIP1 enzyme (His-hSHIP1 enzyme): + (<50%)
